Assay results taken from patent US8993616B2, “(aza)indole derivative and use thereof for medical purposes” (Kissei Pharmaceutical Co., Ltd., priority 2007, dated 2015).

Target: Xanthine oxidase (from bovine milk, Sigma) (Bos taurus (Bovine), UniProt P80457)
Test: Xanthine oxidase inhibitory activity
Type: biochemical
Conditions: xanthine substrate, 10 minutes at room temperature, absorbance at 290 nm
Protocol: (1) Preparation of Test Compounds
Test compounds were dissolved in DMSO (Wako) at 40 mM concentration and then diluted to intended concentrations with phosphate-buffered saline (PBS).
(2) Method for Measurement
Xanthine oxidase (from bovine milk, Sigma) was prepared with phosphate-buffered saline (PBS) at 0.02 units/mL, and then the solution was added to 96 well plates at 50 μL/well. In addition, test compounds diluted with PBS were added at 50 μL/well. Xanthine (Wako) at 200 μM prepared with PBS was added at 100 μL/well, and the reaction was conducted for 10 minutes at room temperature. Absorbance at 290 nm was measured using a microplate reader SpectraMax Plus 384 (Molecular device). The absorbance under a condition without xanthine is 0%, and control without test compounds is 100%. Fifty % inhibitory concentration of a test compound (IC50) was calculated (Table 60). Ex. No in the table indicates Example number.

Chain of Xanthine oxidase (from bovine milk, Sigma) (P80457 whole entry): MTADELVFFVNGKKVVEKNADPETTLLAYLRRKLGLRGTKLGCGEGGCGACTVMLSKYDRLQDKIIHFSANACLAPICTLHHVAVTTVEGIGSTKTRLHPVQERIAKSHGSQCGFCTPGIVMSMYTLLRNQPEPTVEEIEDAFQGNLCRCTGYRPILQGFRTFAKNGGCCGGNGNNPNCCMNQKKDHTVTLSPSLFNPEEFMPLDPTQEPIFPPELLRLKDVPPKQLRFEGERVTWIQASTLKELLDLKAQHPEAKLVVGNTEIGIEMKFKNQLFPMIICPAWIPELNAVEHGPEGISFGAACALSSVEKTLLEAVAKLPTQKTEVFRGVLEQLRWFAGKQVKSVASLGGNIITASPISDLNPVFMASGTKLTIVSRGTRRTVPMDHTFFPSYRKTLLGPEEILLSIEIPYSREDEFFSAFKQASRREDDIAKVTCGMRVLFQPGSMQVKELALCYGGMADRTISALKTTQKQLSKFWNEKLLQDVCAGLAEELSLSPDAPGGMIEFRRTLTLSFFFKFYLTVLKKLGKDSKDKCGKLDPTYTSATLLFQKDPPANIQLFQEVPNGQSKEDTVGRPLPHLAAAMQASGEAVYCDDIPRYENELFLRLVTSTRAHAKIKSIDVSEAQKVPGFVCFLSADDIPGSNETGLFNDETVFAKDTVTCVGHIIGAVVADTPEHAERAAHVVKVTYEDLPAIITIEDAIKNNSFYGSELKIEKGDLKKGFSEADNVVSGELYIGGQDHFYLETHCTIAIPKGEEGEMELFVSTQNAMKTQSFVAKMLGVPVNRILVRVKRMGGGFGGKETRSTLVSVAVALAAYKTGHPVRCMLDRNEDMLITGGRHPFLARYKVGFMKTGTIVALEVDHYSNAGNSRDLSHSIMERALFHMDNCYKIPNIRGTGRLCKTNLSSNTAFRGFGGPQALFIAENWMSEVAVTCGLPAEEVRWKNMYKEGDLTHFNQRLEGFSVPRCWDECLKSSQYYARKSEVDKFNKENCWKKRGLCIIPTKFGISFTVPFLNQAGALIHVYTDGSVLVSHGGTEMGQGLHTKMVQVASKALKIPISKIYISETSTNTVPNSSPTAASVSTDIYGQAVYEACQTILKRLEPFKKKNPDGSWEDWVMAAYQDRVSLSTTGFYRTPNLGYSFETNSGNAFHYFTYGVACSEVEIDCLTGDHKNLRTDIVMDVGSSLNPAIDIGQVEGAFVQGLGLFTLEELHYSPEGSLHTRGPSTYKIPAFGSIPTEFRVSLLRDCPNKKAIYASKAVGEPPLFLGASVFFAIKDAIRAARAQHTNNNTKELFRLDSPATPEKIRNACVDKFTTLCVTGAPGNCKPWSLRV

Compound	IC50 [nM]
CCCOc1ccc2c(C#N)cn(-c3ccc(C(=O)O)c(O)c3)c2c1 [Example 220]	9.4
CCCCOc1ccc2c(C#N)cn(-c3ccc(C(=O)O)c(O)c3)c2c1 [Example 221]	71.5
N#Cc1cn(-c2ccc(C(=O)O)c(O)c2)c2cc(OCCOc3ccccc3)ccc12 [Example 222]	41.8
CCOc1ccc2c(C#N)cn(-c3ccc(C(=O)O)c(O)c3)c2c1 [Example 223]	7.5
CC(C)Oc1ccc2c(C#N)cn(-c3ccc(C(=O)O)c(O)c3)c2c1 [Example 224]	9.7
N#Cc1cn(-c2ccc(C(=O)O)c(O)c2)c2cccc(F)c12 [Example 225]	4.6
CN(C)CCCOc1ccc2c(C#N)cn(-c3ccc(C(=O)O)c(O)c3)c2c1 [Example 226]	10
N#Cc1cn(-c2ccc(C(=O)O)c(O)c2)c2cc(OCCCN)ccc12 [Example 227]	10.4
N#Cc1cn(-c2ccc(C(=O)O)c(O)c2)c2cc(OCCCO)ccc12 [Example 228]	7.5
N#Cc1cn(-c2ccc(C(=O)O)c(O)c2)c2cc(OCCCCO)ccc12 [Example 229]	7.1
N#Cc1cn(-c2ccc(C(=O)O)c(O)c2)c2cc(OCc3ccccc3Cl)ccc12 [Example 230]	67.1
N#Cc1cn(-c2ccc(C(=O)O)c(O)c2)c2cc(OCc3cccc(Cl)c3)ccc12 [Example 231]	29.1
N#Cc1cn(-c2ccc(C(=O)O)c(O)c2)c2cc(OCc3ccc(Cl)cc3)ccc12 [Example 232]	42.5

Results, then the molecule that gave them:

IC50 [nM]	Compound
7.2	N#Cc1cn(-c2ccc(C(=O)O)c(O)c2)c2cc(OCC3CC3)ccc12 [Example 233]
86.5	N#Cc1cn(-c2ccc(C(=O)O)c(O)c2)c2cc(OCC3CCC3)ccc12 [Example 234]
14.2	CN(C)CCOc1ccc2c(C#N)cn(-c3ccc(C(=O)O)c(O)c3)c2c1 [Example 235]
8.3	CS(=O)(=O)NCCOc1ccc2c(C#N)cn(-c3ccc(C(=O)O)c(O)c3)c2c1 [Example 238]
6.5	CC(=O)NCCCOc1ccc2c(C#N)cn(-c3ccc(C(=O)O)c(O)c3)c2c1 [Example 239]
9.8	CS(=O)(=O)NCCCOc1ccc2c(C#N)cn(-c3ccc(C(=O)O)c(O)c3)c2c1 [Example 240]
58	N#Cc1cn(-c2ccc(C(=O)O)cc2)c2cccc(-c3ccccc3)c12 [Example 286]
16	COc1cc2c(C#N)cn(-c3ccc(C(=O)O)cc3)c2cc1F [Example 287]
10	COc1c(C)cc2c(c(C#N)cn2-c2ccc(C(=O)O)cc2)c1C [Example 288]
14	COc1cc2c(C#N)cn(-c3ccc(C(=O)O)cc3)c2cc1Cl [Example 293]
9	Cc1cc2c(C#N)cn(-c3ccc(C(=O)O)cc3)c2cc1Cl [Example 295]
12	Cc1cc2c(C#N)cn(-c3ccc(C(=O)O)cc3)c2cc1F [Example 298]
96	CN(C)c1cc2c(C#N)cn(-c3ccc(C(=O)O)cc3)c2cc1C(F)(F)F [Example 300]
10	CC(C)Oc1cc2c(C#N)cn(-c3ccc(C(=O)O)cc3)c2cc1F [Example 303]
13	Cc1cc2c(C#N)cn(-c3ccc(C(=O)O)cn3)c2cc1F [Example 307]
45	COCOc1cc(-n2cc(C#N)c3ccccc32)ccc1C(=O)O [Example 308]
10	Cc1cc2c(C#N)cn(-c3ccc(C(=O)O)c(O)c3)c2cc1F [Example 316]
12	N#Cc1cn(-c2ccc(C(=O)O)c(O)c2)c2c(F)cccc12 [Example 318]
